Test results taken from article PMC6270326, “The Novel [4,5-e][1,3]Diazepine-4,8-dione and Acyclic Carbamoyl Imino-Ureido Derivatives of Imidazole: Synthesis, Anti-Viral and Anti-Tumor Activity Evaluations” (Molecules, 2013).

Assays:
[1] = system: MCF-7 (breast epithelial adenocarcinoma, metastatic); experiment: Proliferation assay (MTT), MCF-7; assay type: cell-based; conditions: Homo sapiens, MCF7, 72 h incubation, read-out: Tumor cell growth IC50, MCF-7
Procedure: (§1) The cell lines HeLa (cervical carcinoma), SW620 (colorectal adenocarcinoma, metastatic), MCF-7 (breast epithelial adenocarcinoma, metastatic), HepG2 (hepatocellular carcinoma) and BJ (normal diploid human fibroblasts), were cultured as monolayers and maintained in Dulbecco’s modified Eagle medium (DMEM) supplemented with 10% fetal bovine serum (FBS), 2 mM L-glutamine, 100 U/mL penicillin and 100 μg/mL streptomycin in a humidified atmosphere with 5% CO2 at 37 °C.
(§2) The panel cell lines were inoculated onto a series of standard 96-well microtiter plates on day 0, at 3,000 to 5,000 cells per well according to the doubling times of specific cell line. Test agents were then added in 10-fold dilutions (0,01 to 100 µM) and incubated for further 72 h. Working dilutions were freshly prepared on the day of testing in the growth medium. The solvent (DMSO) was also tested for eventual inhibitory activity by adjusting its concentration to be the same as in the working concentrations (DMSO concentration never exceeded 0.1%). After 72 h of incubation, the cell growth rate was evaluated by performing the MTT assay: experimentally determined absorbance values were transformed into a cell percentage growth (PG) using the formulas proposed by NIH and described previously. This method directly relies on control of untreated cells at the day of substances addition because it compares the growth of treated cells with the growth of untreated cells in control wells on the same plate—the results are therefore a percentile difference from the calculated expected value. […] If, however, all of the tested concentrations produce PGs exceeding the respective reference level of effect (e.g., PG value of 50) for a given cell line, the highest tested concentration is assigned as the default value (in the screening data report that default value is preceded by a “>” sign). Each test point was performed in quadruplicate in three individual experiments. The results were statistically analyzed (ANOVA, Tukey post-hoc test at p < 0.05). Finally, the effects of the tested substances were evaluated by plotting the mean percentage growth for each cell type in comparison to control on dose response graphs.

[2] = system: HepG2 (hepatocellular carcinoma); experiment: Proliferation assay (MTT), HepG2; assay type: cell-based; conditions: Homo sapiens, 72 h incubation, read-out: Tumor cell growth IC50, HepG2
Procedure: as §1, §2

[3] = system: SW620 (colorectal adenocarcinoma, metastatic); experiment: Proliferation assay (MTT), SW620; assay type: cell-based; conditions: Homo sapiens, SW-620, 72 h incubation, read-out: Tumor cell growth IC50, SW620
Procedure: as §1, §2

[4] = system: HeLa (cervical carcinoma); experiment: Proliferation assay (MTT), HeLa; assay type: cell-based; conditions: Homo sapiens, 72 h incubation, read-out: Tumor cell growth IC50, HeLa
Procedure: as §1, §2

[5] = system: BJ (normal diploid human fibroblasts); experiment: Proliferation assay (MTT), BJ normal fibroblasts; assay type: cell-based; conditions: for IC50: Fibroblast, BJ normal human skin fibroblasts, 72 h incubation, MTT, read-out: Cell growth IC50, BJ; for Cytotoxicity on human normal fibroblasts (BJ): in words
Procedure: as §1, §2

[6] = system: HeLa, SW620, MCF-7, HepG2 and BJ cell lines; experiment: Proliferation assay (MTT), whole panel of cell lines; assay type: cell-based, human; conditions: in words
Procedure: as §1
The panel cell lines were inoculated onto a series of standard 96-well microtiter plates on day 0, at 3,000 to 5,000 cells per well according to the doubling times of specific cell line. Test agents were then added in 10-fold dilutions (0,01 to 100 µM) and incubated for further 72 h. […] After 72 h of incubation, the cell growth rate was evaluated by performing the MTT assay: experimentally determined absorbance values were transformed into a cell percentage growth (PG) using the formulas proposed by NIH and described previously. This method directly relies on control of untreated cells at the day of substances addition because it compares the growth of treated cells with the growth of untreated cells in control wells on the same plate—the results are therefore a percentile difference from the calculated expected value. […] The results were statistically analyzed (ANOVA, Tukey post-hoc test at p < 0.05). […]

IC50 [1] [µM] | IC50 [2] [µM] | IC50 [3] [µM] | IC50 [4] [µM] | melting point [°C] | Structure (SMILES) | IC50 [5] [µM] | Antiproliferative effect on tested cell lines [6] | Cytotoxicity on human normal fibroblasts (BJ) [5]
> 100 | > 100 | > 100 | > 100 | > 300 | N=c1[nH]c(=O)c2ncn(CCN3CCOCC3)c2c(=O)[nH]1 [Compound 9, 6-Imino-1-(2-morpholin-4-yl-ethyl)-6,7-dihydro-1H,5H-1,3,5,7-tetraaza-azulene-4,8-dione] | > 100 | – | –
> 100 | > 100 | > 100 | > 100 | 200 to 201 | NC(=O)c1ncn(CCN2CCCCC2)c1C(N)=O [Compound 6, 1-(2-Piperidin-1-il-etil)-1H-imidazol-4,5-diamide] | > 100 | – | –
> 100 | 41 | 31 | 31 | > 300 | N=c1[nH]c(=O)c2ncn(CCN3CCCCC3)c2c(=O)[nH]1 [Compound 10, 6-Imino-1-(2-piperidin-1-yl-ethyl)-6,7-dihydro-1H,5H-1,3,5,7-tetraaza-azulene-4,8-dione] | > 100 | moderate non-selective antiproliferative activity | –
> 100 | > 100 | > 100 | > 100 | – | COC(=O)c1ncn(CCN2CCCCC2)c1C(=O)OC [Compound 2, 1-(2-Piperidin-1-yl-ethyl)-1H-imidazole-4,5-dicarboxylic acid dimethyl ester] | > 100 | – | –
> 100 | > 100 | > 100 | > 100 | > 164 | COC(=O)c1ncn(CCN2CCOCC2)c1C(=O)NC(=N)NC(=O)Nc1ccccc1F [Compound 12, 5-({[3-(2-Fluoro-phenyl)-ureido]-imino-methyl}-carbamoyl)-1-(2-morpholin-4-yl-ethyl)-1H-imidazole-4-carboxylic acid methyl ester] | > 100 | – | –
> 100 | > 100 | > 100 | > 100 | 205 to 210 | CN(C)CCCn1cnc(C(N)=O)c1C(N)=O [Compound 8, 1-(3-Dimethylamino-propyl)-1H-imidazole-4,5-dicarboxylic acid diamide] | > 100 | – | –
> 100 | > 100 | > 100 | > 100 | – | COC(=O)c1ncn(CCCN(C)C)c1C(=O)OC [Compound 4, 1-(3-Dimethylamino-propyl)-1H-imidazole-4,5-dicarboxylic acid dimethyl ester] | > 100 | – | –
> 100 | > 100 | 20 | > 100 | – | N=c1[nH]c(=O)c2ncn(CCN3CCCC3)c2c(=O)[nH]1 [Compound 11, 6-Imino-1-(2-pyrrolidin-1-yl-ethyl)-6,7-dihydro-1H,5H-1,3,5,7-tetraaza-azulene-4,8-dione] | > 100 | – | –

Structure (SMILES) | IC50 [1] [µM] | IC50 [2] [µM] | IC50 [3] [µM] | IC50 [4] [µM] | melting point [°C] | IC50 [5] [µM] | Antiproliferative effect on tested cell lines [6] | Cytotoxicity on human normal fibroblasts (BJ) [5]
COC(=O)c1ncn(CCN2CCOCC2)c1C(=O)OC [Compound 1, 1-(2-Morpholin-4-yl-ethyl)-1H-imidazole-4,5-dicarboxylic acid dimethyl ester] | > 100 | > 100 | > 100 | 24 | – | > 100 | – | no concomitant cytotoxic effects
COC(=O)c1ncn(CCN2CCCC2)c1C(=O)OC [Compound 3, 1-(2-Pyrrolidin-1-yl-ethyl)-1H-imidazole-4,5-dicarboxylic acid dimethyl ester] | > 100 | > 100 | > 100 | 9.5 | – | > 100 | – | no apparent cytotoxicity
NC(=O)c1ncn(CCN2CCOCC2)c1C(N)=O [Compound 5, 1-(2-Morpholin-4-yl-ethyl)-1H-imidazole-4,5-dicarboxylic acid diamide] | > 100 | > 100 | > 100 | 32 | 196 to 197 | > 100 | – | no concomitant cytotoxic effects
